Measured values taken from patent US20080194585A1, “Fungicidal Pyrazine Derivatives” (priority 2005, published 2008).
Marks after values point to notes of the source that are not given here.

Legend:
Septoria nodorum = experiment: Test H: wheat glum blotch, preventive spray on wheat seedlings; conditions: 40 ppm (*)
Description: (the causal agent of wheat glum blotch) and incubated in a saturated atmosphere at 20° C. for 48 h, and then moved to a growth chamber at 22° C. for 5 days, after which disease ratings were made.

Septoria tritici = experiment: Test J: wheat leaf blotch, preventive spray on wheat seedlings; type: in vivo
From the text: A dash (-) indicates no test results.

[1] = test system: Erysiphe graminis f. sp. tritici; experiment: Test L: wheat powdery mildew, preventive spray on wheat seedlings; conditions: 40 ppm (*)
[2] = test system: Puccinia recondita f. sp. tritici; experiment: Test K: wheat leaf rust, preventive spray on wheat seedlings; conditions: 40 ppm (*)
Phytophthora infestans = experiment: whole plant or invertebrate; type: in vivo
Plasmopara viticola = experiment: Test D: grape downy mildew, spray after inoculation of grape seedlings; type: in vivo
From the text: Upon removal, disease ratings were made. […] A dash (-) indicates no test results.

[3] = test system: Colletotrichum orbiculare; experiment: Test B: cucumber Colletotrichum anthracnose, preventive spray on cucumber seedlings; conditions: 40 ppm (*)
Pythium aphanidermatum = experiment: Test A: bluegrass pythium blight, preventive spray on bluegrass seedlings
Botrytis cinerea = experiment: Test E: tomato botrytis, preventive spray on tomato seedlings; conditions: 40 ppm (*)
Rhizoctonia oryzae = experiment: Test G: turf brown patch, preventive spray on creeping bent grass seedlings; conditions: 40 ppm (*)
Description: (the causal agent of turf brown patch) and incubated in a saturated atmosphere at 27° C. for 24 h, and then moved to a growth chamber at 27° C. for 5 days, after which disease ratings were made.

fusarium graminearium = experiment: Test I: wheat head scab, preventive spray on wheat seedlings
Description: (the causal agent of wheat head scab) and incubated in a saturated atmosphere at 20° C. for 72 h, and then moved to a growth chamber at 22° C. for 5 days, after which disease ratings were made.

Sclerotinia sclerotiorum = experiment: Test C: cucumber white mold, preventive spray on cucumber seedlings

SMILES | Test H disease control rating (Septoria nodorum) | Test J disease control rating (Septoria tritici; 40 ppm (*)) | Test L disease control rating [1] | Test K disease control rating [2] | Test F disease control rating (Phytophthora infestans; 200 ppm) [%] | Test D disease control rating (Plasmopara viticola; 200 ppm) [%] | Test B disease control rating [3] | Test A disease control rating (Pythium aphanidermatum; 200 ppm) [%] | Test E disease control rating (Botrytis cinerea) | Test G disease control rating (Rhizoctonia oryzae) | Test I disease control rating (fusarium graminearium; 200 ppm) [%] | Test C disease control rating (Sclerotinia sclerotiorum; 200 ppm) [%] | Test F disease control rating (Phytophthora infestans; 40 ppm (*)) | Test D disease control rating (Plasmopara viticola; 40 ppm (*)) | Test A disease control rating (Pythium aphanidermatum; 40 ppm (*)) | Test I disease control rating (fusarium graminearium; 40 ppm (*)) | Test C disease control rating (Sclerotinia sclerotiorum; 40 ppm (*)) | Test J disease control rating (Septoria tritici; 200 ppm) [%]
CC(C)Cn1c(-c2ccc3ccccc3c2)c(Cl)nc(-n2cncn2)c1=O [compound 119] | 0* % | 68* % | 0* % | 0* % | 0 | 0 | 0* % | 0 | 0* % | 0* % | 76 | 0 |  |  |  |  |  | 
CC(C)Cn1c(-c2c(Cl)ccc(Cl)c2Cl)c(Cl)nc(-n2cncn2)c1=O [compound 120] | 64* % | 91* % | 0* % | 55* % | 0 | 0 | 0* % | 0 | 99* % | 0* % | 86 | 93 |  |  |  |  |  | 
COC(=O)Cn1c(-c2c(F)cccc2F)c(Cl)nc(-n2cccn2)c1=O [compound 122] | 0* % | 7* % | 0* % | 28* % |  |  | 0* % |  | 49* % | 16* % |  |  | 0* % | 58* % | 0* % | 0* % | 0* % | 
COC(=O)Cn1c(-c2c(F)cccc2F)c(Cl)nc(-n2cncn2)c1=O [compound 123] | 0* % | 19* % | 0* % | 0* % |  |  | 0* % |  | 0* % | 0* % |  |  | 0* % | 0* % | 0* % | 0* % | 0* % | 
O=c1c(-n2cccn2)nc(Cl)c(-c2c(F)cccc2F)n1CCCl [compound 124] | 100* % | 100* % | 0* % | 100* % |  |  | 0* % |  | 99* % | 21* % |  |  | 0* % | 0* % | 0* % | 0* % | 0* % | 
O=c1c(-n2cncn2)nc(Cl)c(-c2c(F)cccc2F)n1CCCl [compound 125] | 0* % | 71* % | 0* % | 55* % |  |  | 0* % |  | 0* % | 0* % |  |  | 0* % | 0* % | 0* % | 0* % | 0* % | 
CS(=O)(=O)CCn1c(-c2c(F)cccc2F)c(Cl)nc(-n2cccn2)c1=O [compound 126] | 0* % | 19* % | 0* % | 0* % |  |  | 0* % |  | 0* % | 0* % |  |  | 0* % | 0* % | 0* % | 0* % | 0* % | 
CS(=O)(=O)CCn1c(-c2c(F)cccc2F)c(Cl)nc(-n2cncn2)c1=O [compound 127] | 0* % |  | 0* % | 0* % |  |  | 0* % |  | 0* % | 0* % |  |  | 0* % | 0* % | 0* % | 0* % | 0* % | 16
CC(C)Cn1c(Cc2ccccc2)c(Cl)nc(-n2cncn2)c1=O [compound 128] | 0* % | 0* % | 0* % | 0* % |  |  | 0* % |  | 0* % | 0* % |  |  | 0* % | 0* % | 0* % | 0* % | 0* % | 
CC(C)Cn1c(-c2cccc3ccccc23)c(Cl)nc(-n2cncn2)c1=O [compound 129] | 0* % | 19* % | 0* % | 0* % |  |  | 0* % |  | 0* % | 0* % |  |  | 0* % | 0* % | 0* % | 0* % | 0* % | 
CC(C)Cn1c(Cc2ccccc2)c(Cl)nc(-n2cccn2)c1=O [compound 130] | 0* % | 16* % | 0* % | 0* % |  |  | 0* % |  | 0* % | 0* % |  |  | 0* % | 0* % | 0* % | 0* % | 0* % | 
CC(C)Cn1c(-c2cccc3ccccc23)c(Cl)nc(-n2cccn2)c1=O [compound 131] | 0* % | 52* % | 0* % | 0* % |  |  | 0* % |  | 0* % | 0* % |  |  | 0* % | 0* % | 0* % | 0* % | 0* % | 
CC(C)Cn1c(C(C)c2ccccc2)c(Cl)nc(-n2cccn2)c1=O (stereo not drawn) [compound 132] | 0* % | 9* % | 0* % | 0* % |  |  | 0* % |  | 0* % | 0* % |  |  | 0* % | 0* % | 0* % | 0* % | 0* % | 
CC(C)Cn1c(C(C)c2ccccc2)c(Cl)nc(-n2cncn2)c1=O (stereo not drawn) [compound 133] | 0* % | 23* % | 0* % | 0* % |  |  | 0* % |  | 0* % | 0* % |  |  | 0* % | 0* % | 0* % | 0* % | 0* % | 
CC(C)Cn1c(-c2cc(F)cc(F)c2F)c(Cl)nc(-n2cccn2)c1=O [compound 139] | 97* % | 100* % | 99* % | 99* % |  |  | 0* % |  | 100* % | 91* % |  |  | 0* % | 0* % | 0* % | 0* % | 95* % | 
COC(=O)c1ccc(-c2c(Cl)nc(-n3cncn3)c(=O)n2CC(C)C)cc1 [compound 146] | 0* % | 5* % | 0* % | 0* % |  |  | 0* % |  | 0* % | 0* % |  |  | 0* % | 0* % | 0* % | 0* % | 0* % | 
